This note sets out measurements from patent US20230015949A1, “NEISSERIA TREATMENT USING CANNABINOIDS” (priority 2019, published 2023).

≈ marks a conversion by molar mass, not a printed value. Read-outs that look alike come from different tables or passages of the source. A value given as a limit tells only on which side of the number the result lay.

Common to all, as to format: cell-based
The subject of experiment [1] is Neisseria gonorrhoeae. The experiment is described as follows: Broth microdilution MIC testing (Example 1). How it is done: (§1) In this study, to evaluate the spectrum of activity, cannabidiol (CBD) was profiled against Neisseria. Testing was conducted following guidelines recommended by the Clinical and Laboratory Standards Institute (CLSI, 1-4), using vancomycin, meropenem, levofloxacin, and gentamicin as comparators for testing aerobic bacteria.
(§2) Test agents were supplied by Micromyx. Stock solutions of all compounds were prepared on the first day of testing at 101× the highest test concentration using solvents recommended by CLSI. CBD was prepared fresh on each of testing.
(§3) The test organisms evaluated in this study consisted of clinical isolates from the Micromyx Repository, reference isolates from the American Type Culture Collection (ATCC; Manassas, Va.), isolates from the antibiotic resistance bank from the Centers for Disease Control and Prevention (CDC; Atlanta, Ga.), and isolates from the Network on Antimicrobial Resistance in Staphylococcus aureus (NARSA; BEI Resources, Manassas, Va.). Upon initial receipt at Micromyx, the organisms were sub-cultured onto an appropriate agar medium. Following incubation, colonies were harvested from these plates and cell suspensions prepared and frozen at −80° C. with a cryoprotectant.
(§4) Prior to testing, Neisseria was streaked onto Chocolate agar (BD; Lot No. 9228071) and incubated at 35° C. in 5% CO2 for 24 hr.
(§5) For Neisseria, a modified medium described by the ATCC as capable of supporting growth was used. This medium contains 15 g Oxoid Special Peptone, 1 g corn starch (Ward's Science; Rochester, N.Y.; Lot 39-3271), 5 g NaCl (VWR; 57897), 4 g K2HPO4 (Sigma; Lot SLBT7061), 1 g KH2PO4 (SLBC1921V), and 1% IsoVitaleX (BD; Lot 8323954) enrichment per 500 mL.
(§6) MIC values were determined using a broth microdilution procedure described by CLSI (1-4). Automated liquid handlers (Multidrop 384, Labsystems, Helsinki, Finland; Biomek 2000 and Biomek FX, Beckman Coulter, Fullerton, Calif.) were used to conduct serial dilutions and liquid transfers.
(§7) To prepare the drug mother plates, which would provide the serial drug dilutions for the replicate daughter plates, the wells of columns 2 through 12 of standard 96-well microdilution plates (Costar 3795) were filled with 150 μl of the designated diluent for each row of drug. The test article and comparator compounds (300 μl at 101× the highest concentration to be tested) were dispensed into the appropriate wells in column 1. The Biomek 2000 was then used to make 2-fold serial dilutions in the mother plates from column 1 through column 11. The wells of column 12 contained no drug and served as the organism growth control wells for the assay.
(§8) The daughter plates were loaded with 190 μL per well of the appropriate test medium for the tested organism using the Multidrop 384. The daughter plates were completed on the Biomek FX instrument which transferred 2 μL of drug solution from each well of a mother plate to the corresponding well of each daughter plate in a single step.
A standardized inoculum of each test organism was prepared per CLSI methods (1-4). The inoculum for each organism was dispensed into sterile reservoirs divided by length (Beckman Coulter), and the Biomek 2000 was used to inoculate the plates. Daughter plates were placed on the Biomek 2000 work surface in reverse orientation so that inoculation took place from low to high drug concentration. Plates were inoculated with 10 μL of the inoculum resulting in a final cell density of approximately 5×10^5 CFU/mL per well.
The plates for testing of aerobic organisms were stacked 3 to 4 high, covered with a sterile lid, and incubated at 35° C. and 5% CO2 for the time periods specified in CLSI (1-4). […] Following incubation, the microplates were removed from the incubator and viewed from the bottom using a plate viewer. […] The MIC was read and recorded as the lowest concentration of drug that inhibited visible growth of the organism.

The subject of experiment [2] is Neisseria meningitidis. The experiment in a line: Broth microdilution MIC testing (Example 1). As to the method:
as §1, §2, §3, §4, §5, §6, §7, §8
A standardized inoculum of each test organism was prepared per CLSI methods (1-4). The inoculum for each organism was dispensed into sterile reservoirs divided by length (Beckman Coulter), and the Biomek 2000 was used to inoculate the plates. […]
The plates for testing of aerobic organisms were stacked 3 to 4 high, covered with a sterile lid, and incubated at 35° C. and 5% CO2 for the time periods specified in CLSI (1-4). […] The MIC was read and recorded as the lowest concentration of drug that inhibited visible growth of the organism.
(In general: Broth dilution looks for growth in wells or tubes with falling amounts of substance.)

In experiment [3] the test system is Staphylococcus aureus ATCC 29213. The experiment in a line: Broth microdilution MIC assay, quality control strain (Example 2). To be noted: ATCC29213, S. aureus ATCC 29213 (QC), CAMHB. How it is done:
Following incubation, colonies were harvested from these plates and cell suspensions prepared and frozen at −80° C. with a cryoprotectant. Prior to testing, N. gonorrhoeae isolates were streaked onto Chocolate Agar [Becton Dickinson, (BD), Sparks, Md.; Lot No. 922807]; Staphylococcus aureus ATCC 29213 tested for quality control (QC) purposes was streaked onto Trypticase Soy Agar with 5% Sheep Blood (TSA II; BD; Lot No. 9219399).
Cation-adjusted Mueller Hinton broth (CAMHB; BD; Lot No. 9019592) was used for MIC testing of S. aureus ATCC 29213 for QC purposes.
MIC values were determined using a broth microdilution procedure described by CLSI (1, 2). Automated liquid handlers (Multidrop 384, Labsystems, Helsinki, Finland; Biomek 2000 and Biomek FX, Beckman Coulter, Fullerton Calif.) were used to conduct serial dilutions and liquid transfers.
as §7, with “articles” for “article”, “100×” for “101×”
The daughter plates were loaded with 190 μL per well of the appropriate test medium for the tested organism using the Multidrop 384. The daughter plates were completed on the Biomek FX instrument which transferred 2 μL of drug solution from each well of a mother plate to the corresponding well of each daughter plate in a single step. Daughter plates for the testing of anaerobes were allowed to pre-reduce in the Bactron II anaerobe chamber for 2 hr prior to inoculation.
A standardized inoculum of each test organism was prepared per CLSI methods (1, 2). The inoculum for each organism was dispensed into sterile reservoirs divided by length (Beckman Coulter), and the Biomek 2000 was used to inoculate the plates. Daughter plates were placed on the Biomek 2000 work surface in reverse orientation so that inoculation took place from low to high drug concentration. Anaerobic organisms were inoculated by hand in the Bactron II anaerobic chamber. Bacterial plates were then inoculated with 10 μL of the inoculum resulting in a final cell density of approximately 5×10^5 CFU/mL.
Plates were stacked 3 to 4 high, covered with a lid on the top plate and placed in plastic bags. […] The MIC was read and recorded as the lowest concentration of drug that inhibited visible growth of the organism.

Experiment [4] deals with Neisseria gonorrhoeae. The experiment in a line: Agar dilution MIC assay, 25 isolates (Example 3). Particulars: for MIC: Neisseria gonorrhoeae, agar dilution. As to the method:
The MIC of Neisseria gonorrhoea was established using an agar dilution MIC assay.
Test drugs were provided by Micromyx. All stock solutions were allowed to stand for at least 1 hr prior to use to auto-sterilize. Leftover stock solutions of comparator drugs were aliquoted and stored at −80° C. Suppliers, catalog/lot numbers, solvents, stock concentrations and testing ranges were as follows.
Test organisms were reference strains from the American Type Culture Collection (ATCC; Manassas, Va.), isolates from WHO, isolates from the CDC antibiotic resistance bank, and clinical isolates from the Micromyx (MMX) repository. Upon receipt at Micromyx, the isolates were streaked under suitable conditions onto agar medium appropriate to each organism and were incubated for 24-48 hr at 35° C. Colonies harvested from these growth plates were resuspended in the appropriate medium containing a cryoprotectant. Aliquots of each suspension were then frozen at −80° C.
Prior to testing, the isolates were sub-cultured onto Chocolate agar (Becton Dickenson [BD]/BBL; Sparks, Md., Cat. No. 221267, Lot No. 9346275) and placed at 35° C. in a CO2 incubator for 24 hrs.
MIC values were determined using the agar dilution method (1, 2). All serial dilutions and liquid handling were performed by hand using sterile pipettes. […] Cannabidiol was prepared as a stock solution at 100× the final concentration in the appropriate solvent and diluted according to CLSI guidelines.
Each test agent was mixed with molten (50-55° C.) GC media agar supplemented with 1% IsoVitalex. […] All other test agents were added to the medium in a ratio of 0.2 mL 100× test agent to 19.8 mL agar. Once test agents were added to the agar in a sterile tube, they were mixed gently and then poured into a sterile 110×15 mm petri dish. Plates were allowed to solidify at room temperature and placed in a laminar air flow hood with the covers off to remove condensed moisture on the agar surface.
Next, each isolate was suspended to the equivalent of a 0.5 McFarland standard in saline using a Siemens Microscan turbidity meter and diluted 1:10. Each bacterial cell suspension was then transferred to wells in a stainless-steel replicator block. The prongs on the replicator deliver approximately 1-2 μl of inoculum to an agar surface. The resulting inoculum spots contained approximately 10^4 cells/spot.
Each agar plate containing either test compound or no drug (control) was stamped with the replicator. All plates were placed with the agar surface up to allow for the inoculum to soak into the agar. The plates were inverted and incubated at 35° C. for 24 hrs in a CO2 incubator and finally inspected for growth.
For orientation: In agar dilution the substance is mixed into plates at graded concentrations.

The mark [5] stands for this setting: Neisseria gonorrhoeae, ATCC49226, N. gonorrhoeae MMX 0683 / ATCC 49226, broth microdilution, plate read at 40 hr, read-out: MIC.
Setting [6] is: Neisseria gonorrhoeae, N. gonorrhoeae MMX 6746, broth microdilution, read-out: MIC.
[7] abbreviates: Neisseria gonorrhoeae, N. gonorrhoeae MMX 6757, broth microdilution, plate read at 40 hr, read-out: MIC.
Where [8] appears, read: Neisseria meningitidis, ATCC13090, N. meningitidis MMX 0707 / ATCC 13090, broth microdilution, read-out: MIC.
Where [9] appears, read: 25 isolates, agar dilution assay, MIC distribution.

The term MIC denotes the smallest concentration in the dilution series that meets the test's criterion for growth inhibition. With `C[C@H]1COc2c(N3CCN(C)CC3)c(F)cc3c(=O)c(C(=O)O)cn1c23` [LVX, levofloxacin], the MIC is 0.002 µg/mL (≈ 0.00553 µM) in experiment [1] (setting [5]), 4 µg/mL (≈ 11.1 µM) in experiment [1] (setting [6]), 0.015 µg/mL (≈ 0.0415 µM) in experiment [1] (setting [7]) and 0.004 µg/mL (≈ 0.0111 µM) in experiment [2] (setting [8]).

As for `C[C@@H](O)[C@H]1C(=O)N2C(C(=O)O)=C(S[C@@H]3CN[C@H](C(=O)N(C)C)C3)[C@H](C)[C@H]12` [MEM, meropenem], the MIC in experiment [1] (setting [5]) was less than 0.03 µg/mL; in experiment [1] (setting [6]), 0.06 µg/mL (≈ 0.156 µM); in experiment [1] (setting [7]) it was less than 0.03 µg/mL; in experiment [2] (setting [8]), less than 0.03 µg/mL.

Regarding `CN[C@H](CC(C)C)C(=O)N[C@H]1C(=O)N[C@@H](CC(N)=O)C(=O)N[C@H]2C(=O)N[C@H]3C(=O)N[C@H](C(=O)N[C@H](C(=O)O)c4cc(O)cc(O)c4-c4cc3ccc4O)[C@H](O)c3ccc(c(Cl)c3)Oc3cc2cc(c3O[C@@H]2O[C@H](CO)[C@@H](O)[C@H](O)[C@H]2O[C@H]2C[C@](C)(N)[C@H](O)[C@H](C)O2)Oc2ccc(cc2Cl)[C@H]1O` [VAN, vancomycin], the minimum inhibitory concentration (MIC) in experiment [1] (Neisseria gonorrhoeae) is 16 µg/mL (≈ 11 µM); in experiment [1] (Neisseria gonorrhoeae, 40 h), 32 µg/mL (≈ 22.1 µM); in experiment [1] (Neisseria gonorrhoeae, ATCC49226, 40 h), 8 µg/mL (≈ 5.52 µM); in experiment [2] (Neisseria meningitidis, ATCC13090), greater than 32 µg/mL.

Compound `O=C(O)c1cn(C2CC2)c2cc(N3CCNCC3)c(F)cc2c1=O` [CIP, ciprofloxacin] returned an MIC in experiment [3] of 0.25 µg/mL (≈ 0.754 µM). Further, in experiment [4] (setting [9]), the “Number of isolates at MIC 0.015 μg mL^−1” value is 3, the “Number of isolates at MIC 0.03 μg mL^−1” value came out at 0, the “Number of isolates at MIC 0.06 μg mL^−1” value is given as 0 and the “Number of isolates at MIC 0.12 μg mL^−1” value was found to be 1. Besides, in experiment [4] (setting [9]), the “Number of isolates at MIC 0.25 μg mL^−1” value stood at 0, the “Number of isolates at MIC 0.5 μg mL^−1” value came to 0, the “Number of isolates at MIC 1 μg mL^−1” value was 0 and the “Number of isolates at MIC 4 μg mL^−1” value is reported as 2. Moreover, in experiment [4] (setting [9]), the “Number of isolates at MIC >8 μg mL^−1” value is recorded as 11 and the “Number of isolates at MIC ≤0.004 μg mL^−1” value was 6. This compound also came in with an MIC in experiment [4] (N. gonorrhoeae CDC 0177) of 0.015 µg/mL (≈ 0.0453 µM). Further, in experiment [4] (N. gonorrhoeae CDC 0181), the MIC came to 0.015 µg/mL (≈ 0.0453 µM). Besides, the MIC in experiment [4] (NCTC13478, N. gonorrhoeae NCTC 13478 (WHO G)) worked out at 0.12 µg/mL (≈ 0.362 µM). The compound further had an MIC in experiment [4] (NCTC13481, N. gonorrhoeae NCTC 13481 (WHO M)) of 2 µg/mL (≈ 6.04 µM). In experiment [4] (NCTC13483, N. gonorrhoeae NCTC 13483 (WHO O)), this compound came in with an MIC of 0.015 µg/mL (≈ 0.0453 µM).

As to gentamicin, the MIC in experiment [1] (N. gonorrhoeae MMX 0683 / ATCC 49226, broth microdilution, plate read at 40 hr) amounted to 4 µg/mL; in experiment [1] (N. gonorrhoeae MMX 6746, broth microdilution) it was 16 µg/mL; in experiment [1] (N. gonorrhoeae MMX 6757, broth microdilution, plate read at 40 hr), 8 µg/mL; in experiment [2] (N. meningitidis MMX 0707 / ATCC 13090, broth microdilution), 8 µg/mL.
